Data taken from US20220162167A1, “SUBSTITUTED BICYCLIC AND TETRACYCLIC QUINONES AND USE THEREOF AS ANTI-CANCER AGENTS” (THE REGENTS OF THE UNIVERSITY OF MICHIGAN, priority 2019, published 2022).

What was measured:
Type in all cases: cell-based
KM12 = test: NCI60 growth inhibition, KM12; conditions: Colon Cancer; further: test concentration or dose not given here
Description: (§1) Representative compounds were tested in 60 cell lines (NCI60) at the National Cancer Institute, Developmental Therapeutics Program.
(§2) Representative compounds were tested in a panel of 60 cancer cells (NCI 60) at the National Cancer Institute. Growth inhibition are shown in table 2, table 3, table 4, table 5, and FIG. 1, FIG. 2, FIG. 3, FIG. 4, FIG. 5.

SW-620 = test: NCI60 growth inhibition, SW-620; conditions: Colon Cancer; further: test concentration or dose not given here
Description: as §1, §2

IGROV1 = test: NCI60 growth inhibition, IGROV1; conditions: Ovarian Cancer
Description: as §1, §2

HOP-92 = test: NCI60 growth inhibition, HOP-92; conditions: Non-Small Cell Lung Cancer
Description: as §1, §2

SNB-75 = test: NCI60 growth inhibition, SNB-75; conditions: CNS Cancer; further: test concentration or dose not given here
Description: as §1, §2

MOLT-4 = test: NCI60 growth inhibition, MOLT-4; conditions: Leukemia
Description: as §1, §2

BT-549 = test: NCI60 growth inhibition, BT-549; conditions: Breast Cancer
Description: as §1, §2

M14 = test: NCI60 growth inhibition, M14; conditions: Melanoma
Description: as §1, §2

OVCAR-3 = test: NCI60 growth inhibition, OVCAR-3; conditions: Ovarian Cancer
Description: as §1, §2

MDA-MB-468 = test: NCI60 growth inhibition, MDA-MB-468; conditions: Breast Cancer; further: test concentration or dose not given here
Description: as §1, §2

NCI-H460 = test: NCI60 growth inhibition, NCI-H460; conditions: Non-Small Cell Lung Cancer
Description: as §1, §2

DU-145 = test: NCI60 growth inhibition, DU-145; conditions: Prostate Cancer
Description: as §1, §2

SK-OV-3 = test: NCI60 growth inhibition, SK-OV-3; conditions: Ovarian Cancer
Description: as §1, §2

HCC-2998 = test: NCI60 growth inhibition, HCC-2998; conditions: Colon Cancer
Description: as §1, §2

A498 = test: NCI60 growth inhibition, A498; conditions: Renal Cancer; further: test concentration or dose not given here
Description: as §1, §2

A549/ATCC = test: NCI60 growth inhibition, A549/ATCC; conditions: Non-Small Cell Lung Cancer
Description: as §1, §2

NCI-H522 = test: NCI60 growth inhibition, NCI-H522; conditions: Non-Small Cell Lung Cancer
Description: as §1, §2

MDA-MB-231/ATCC = test: NCI60 growth inhibition, MDA-MB-231/ATCC; conditions: Breast Cancer
Description: as §1, §2

CAKI-1 = test: NCI60 growth inhibition, CAKI-1; conditions: Renal Cancer; further: test concentration or dose not given here
Description: as §1, §2

HCT-116 = test: NCI60 growth inhibition, HCT-116; conditions: Colon Cancer
Description: as §1, §2

UACC-62 = test: NCI60 growth inhibition, UACC-62; conditions: Melanoma; further: test concentration or dose not given here
Description: as §1, §2

SR = test: NCI60 growth inhibition, SR; conditions: Leukemia
Description: as §1, §2

PC-3 = test: NCI60 growth inhibition, PC-3; conditions: Prostate Cancer
Description: as §1, §2

SN12C = test: NCI60 growth inhibition, SN12C; conditions: Renal Cancer
Description: as §1, §2

RPMI-8226 = test: NCI60 growth inhibition, RPMI-8226; conditions: Leukemia
Description: as §1, §2

HOP-62 = test: NCI60 growth inhibition, HOP-62; conditions: Non-Small Cell Lung Cancer; further: test concentration or dose not given here
Description: as §1, §2

OVCAR-5 = test: NCI60 growth inhibition, OVCAR-5; conditions: Ovarian Cancer
Description: as §1, §2

SK-MEL-28 = test: NCI60 growth inhibition, SK-MEL-28; conditions: Melanoma
Description: as §1, §2

HL-60(TB) = test: NCI60 growth inhibition, HL-60(TB); conditions: Leukemia
Description: as §1, §2

MCF7 = test: NCI60 growth inhibition, MCF7; conditions: Breast Cancer
Description: as §1, §2

K-562 = test: NCI60 growth inhibition, K-562; conditions: Leukemia
Description: as §1, §2

TK-10 = test: NCI60 growth inhibition, TK-10; conditions: Renal Cancer
Description: as §1, §2

SNB-19 = test: NCI60 growth inhibition, SNB-19; conditions: CNS Cancer; further: test concentration or dose not given here
Description: as §1, §2

SF-295 = test: NCI60 growth inhibition, SF-295; conditions: CNS Cancer; further: test concentration or dose not given here
Description: as §1, §2

SF-268 = test: NCI60 growth inhibition, SF-268; conditions: CNS Cancer; further: test concentration or dose not given here
Description: as §1, §2

786-0 = test: NCI60 growth inhibition, 786-0; conditions: Renal Cancer
Description: as §1, §2

EKVX = test: NCI60 growth inhibition, EKVX; conditions: Non-Small Cell Lung Cancer
Description: as §1, §2

U251 = test: NCI60 growth inhibition, U251; conditions: CNS Cancer
Description: as §1, §2

CCRF-CEM = test: NCI60 growth inhibition, CCRF-CEM; conditions: Leukemia
Description: as §1, §2

LOX IMVI = test: NCI60 growth inhibition, LOX IMVI; conditions: Melanoma
Description: as §1, §2

SF-539 = test: NCI60 growth inhibition, SF-539; conditions: CNS Cancer
Description: as §1, §2

UO-31 = test: NCI60 growth inhibition, UO-31; conditions: Renal Cancer
Description: as §1, §2

MDA-MB-435 = test: NCI60 growth inhibition, MDA-MB-435; conditions: Melanoma
Description: as §1, §2

HS 578T = test: NCI60 growth inhibition, HS 578T; conditions: Breast Cancer
Description: as §1, §2

NCI-H23 = test: NCI60 growth inhibition, NCI-H23; conditions: Non-Small Cell Lung Cancer
Description: as §1, §2

OVCAR-4 = test: NCI60 growth inhibition, OVCAR-4; conditions: Ovarian Cancer; further: test concentration or dose not given here
Description: as §1, §2

HT29 = test: NCI60 growth inhibition, HT29; conditions: Colon Cancer
Description: as §1, §2

MALME-3M = test: NCI60 growth inhibition, MALME-3M; conditions: Melanoma
Description: as §1, §2

UACC-257 = test: NCI60 growth inhibition, UACC-257; conditions: Melanoma; further: test concentration or dose not given here
Description: as §1, §2

NCI/ADR-RES = test: NCI60 growth inhibition, NCI/ADR-RES; conditions: Ovarian Cancer
Description: as §1, §2

NCI-H226 = test: NCI60 growth inhibition, NCI-H226; conditions: Non-Small Cell Lung Cancer; further: test concentration or dose not given here
Description: as §1, §2

ACHN = test: NCI60 growth inhibition, ACHN; conditions: Renal Cancer
Description: as §1, §2

COLO 205 = test: NCI60 growth inhibition, COLO 205; conditions: Colon Cancer
Description: as §1, §2

NCI-H322M = test: NCI60 growth inhibition, NCI-H322M; conditions: Non-Small Cell Lung Cancer
Description: as §1, §2

HCT-15 = test: NCI60 growth inhibition, HCT-15; conditions: Colon Cancer; further: test concentration or dose not given here
Description: as §1, §2

SK-MEL-2 = test: NCI60 growth inhibition, SK-MEL-2; conditions: Melanoma; further: test concentration or dose not given here
Description: as §1, §2

SK-MEL-5 = test: NCI60 growth inhibition, SK-MEL-5; conditions: Melanoma
Description: as §1, §2

T-47D = test: NCI60 growth inhibition, T-47D; conditions: Breast Cancer
Description: as §1, §2

SMILES: CN1CCN(c2cc(F)c(NC3=C(Cl)C(=O)c4ncccc4C3=O)c(F)c2)CC1 [Compound 1, 7-chloro-6-((2,6-difluoro-4-(4-methylpiperazin-1-yl)phenyl)amino)quinoline-5,8-dione]
- Growth inhibition (% control) GIPRCNT (KM12): 82.37 % control
- Growth inhibition (% control) GIPRCNT (SW-620): −76.6429 % control
- Growth inhibition (% control) GIPRCNT (IGROV1): −90.4429 % control
- Growth inhibition (% control) GIPRCNT (HOP-92): −79.9407 % control
- Growth inhibition (% control) GIPRCNT (SNB-75): 38.01 % control
- Growth inhibition (% control) GIPRCNT (MOLT-4): −22.6883 % control
- Growth inhibition (% control) GIPRCNT (BT-549): 80.52 % control
- Growth inhibition (% control) GIPRCNT (M14): −40.5376 % control
- Growth inhibition (% control) GIPRCNT (OVCAR-3): −98.2241 % control
- Growth inhibition (% control) GIPRCNT (MDA-MB-468): −73.911 % control
- Growth inhibition (% control) GIPRCNT (NCI-H460): 9.912 % control
- Growth inhibition (% control) GIPRCNT (DU-145): −67.5681 % control
- Growth inhibition (% control) GIPRCNT (SK-OV-3): 82.67 % control
- Growth inhibition (% control) GIPRCNT (HCC-2998): 61.85 % control
- Growth inhibition (% control) GIPRCNT (A498): 80.11 % control
- Growth inhibition (% control) GIPRCNT (A549/ATCC): 74.56 % control
- Growth inhibition (% control) GIPRCNT (NCI-H522): −59.746 % control
- Growth inhibition (% control) GIPRCNT (MDA-MB-231/ATCC): −31.9795 % control
- Growth inhibition (% control) GIPRCNT (CAKI-1): −85.6094 % control
- Growth inhibition (% control) GIPRCNT (HCT-116): −69.7462 % control
- Growth inhibition (% control) GIPRCNT (UACC-62): −45.6278 % control
- Growth inhibition (% control) GIPRCNT (SR): −0.8134 % control
- Growth inhibition (% control) GIPRCNT (PC-3): 11.83 % control
- Growth inhibition (% control) GIPRCNT (SN12C): −97.4828 % control
- Growth inhibition (% control) GIPRCNT (RPMI-8226): −20.7257 % control
- Growth inhibition (% control) GIPRCNT (HOP-62): 83.28 % control
- Growth inhibition (% control) GIPRCNT (OVCAR-5): −59.8079 % control
- Growth inhibition (% control) GIPRCNT (SK-MEL-28): −55.0718 % control
- Growth inhibition (% control) GIPRCNT (HL-60(TB)): −26.4294 % control
- Growth inhibition (% control) GIPRCNT (MCF7): −58.1831 % control
- Growth inhibition (% control) GIPRCNT (K-562): −0.8345 % control
- Growth inhibition (% control) GIPRCNT (TK-10): 8.462 % control
- Growth inhibition (% control) GIPRCNT (SNB-19): 96.33 % control
- Growth inhibition (% control) GIPRCNT (SF-295): 78.81 % control
- Growth inhibition (% control) GIPRCNT (SF-268): 48.73 % control
- Growth inhibition (% control) GIPRCNT (786-0): −72.0362 % control
- Growth inhibition (% control) GIPRCNT (EKVX): −82.6636 % control
- Growth inhibition (% control) GIPRCNT (U251): −9.877 % control
- Growth inhibition (% control) GIPRCNT (CCRF-CEM): −18.2389 % control
- Growth inhibition (% control) GIPRCNT (LOX IMVI): −70.2674 % control
- Growth inhibition (% control) GIPRCNT (SF-539): −25.0889 % control
- Growth inhibition (% control) GIPRCNT (UO-31): −100 % control
- Growth inhibition (% control) GIPRCNT (MDA-MB-435): −75.7981 % control
- Growth inhibition (% control) GIPRCNT (HS 578T): −16.4793 % control
- Growth inhibition (% control) GIPRCNT (NCI-H23): −61.2055 % control
- Growth inhibition (% control) GIPRCNT (OVCAR-4): −99.2407 % control
- Growth inhibition (% control) GIPRCNT (HT29): 11.1525 % control
- Growth inhibition (% control) GIPRCNT (MALME-3M): −96.0656 % control
- Growth inhibition (% control) GIPRCNT (UACC-257): −62.2412 % control
- Growth inhibition (% control) GIPRCNT (NCI/ADR-RES): 37.87 % control
- Growth inhibition (% control) GIPRCNT (NCI-H226): 85.32 % control
- Growth inhibition (% control) GIPRCNT (ACHN): −93.058 % control
- Growth inhibition (% control) GIPRCNT (COLO 205): 33.98 % control
- Growth inhibition (% control) GIPRCNT (NCI-H322M): 101.8249 % control
- Growth inhibition (% control) GIPRCNT (HCT-15): −8.531 % control
- Growth inhibition (% control) GIPRCNT (SK-MEL-2): −49.6035 % control
- Growth inhibition (% control) GIPRCNT (SK-MEL-5): −91.7268 % control
- Growth inhibition (% control) GIPRCNT (T-47D): −32.5382 % control
